This is an account of results in patent US8142801B2, “Pesticidal compositions and methods of use thereof” (EcoBlend, LLC, priority 2009, dated 2012).

One test concerns Tick. Kind of test: Tick repellency on skin. The format is in vivo. The following applies: on its own.
The subject of the next test is Fire ants. Kind of test: Spray test on fire ants. The format is in vivo, Red Imported species. As for the experimental part: The time various compositions take to both knock down (KD) and kill (TM) various pests was determined. As a control, results were compared using sodium lauryl sulfate by itself, and with the various fatty acids.
The tests were conducted for a maximum observation time of 30 minutes, after which time, the test, and all observations, was stopped.
Protocol: Fire ants (Red Imported species) were directly sprayed while traveling on the ground. The average amount of material per area was calculated. The amount of material to kill the Fire Ant was determined.

For `CCCCCCCCCCCCOS(=O)(=O)[O-].[Na+]` [sodium lauryl sulfate], the Repellency to ticks entry with Tick is reported as “not observed to be particularly repellent”. Further, the “Amount of aqueous 10% SLS mixture to kill the fire ant” value in the test with Fire ants is “around 20 ml”.
